Structures can show the parent of a compound that is named as a salt. Where two headings read alike, the source gives them in different places.
Experiments:
Assay in all cases: AK assay 384-well format, Prestwick library screening
E. faecium = type: cell-based, Enterococcus faecium; settings: 50 μM final drug concentration; for fold induction at 50 µM: Enterococcus faecium, 3 h
[1] = tested on: S. aureus strain USA300-0114; type: cell-based, Staphylococcus aureus; settings: 50 μM final drug concentration; for fold induction at 50 µM: Staphylococcus aureus, USA300, 3 h
K. pneumoniae = type: cell-based, Klebsiella pneumoniae; settings: 50 μM final drug concentration; for fold induction at 50 µM: Klebsiella pneumoniae, 3 h
[2] = tested on: A. baumannii strain 98-37-09; type: cell-based, Acinetobacter baumannii; settings: 50 μM final drug concentration; for fold induction at 50 µM: Acinetobacter baumannii, 983709, 3 h
P. aeruginosa = type: cell-based, Pseudomonas aeruginosa; settings: 50 μM final drug concentration; for fold induction at 50 µM: Pseudomonas aeruginosa, 3 h
E. cloacae = type: cell-based, Enterobacter cloacae; settings: 50 μM final drug concentration; for fold induction at 50 µM: Enterobacter cloacae, 3 h
E. coli = type: cell-based, Escherichia coli; settings: 50 μM final drug concentration; for fold induction at 50 µM: Escherichia coli, 3 h
[3] = planktonic E. faecium, cutoff for positive-scoring molecules 3-fold increase, read-out: AK-based Prestwick Library Screening Results, E. faecium (increase in extracellular AK activity)
[4] = planktonic S. aureus, cutoff for positive-scoring molecules 3-fold increase, read-out: AK-based Prestwick Library Screening Results, S. aureus (increase in extracellular AK activity)
[5] = planktonic K. pneumoniae, cutoff for positive-scoring molecules 3-fold increase, read-out: AK-based Prestwick Library Screening Results, K. pneumoniae (increase in extracellular AK activity)
[6] = planktonic A. baumannii, cutoff for positive-scoring molecules 3-fold increase, read-out: AK-based Prestwick Library Screening Results, A. baumannii (increase in extracellular AK activity)
[7] = planktonic P. aeruginosa, cutoff for positive-scoring molecules 3-fold increase, read-out: AK-based Prestwick Library Screening Results, P. aeruginosa (increase in extracellular AK activity)
[8] = planktonic E. cloacae, cutoff for positive-scoring molecules 3-fold increase, read-out: AK-based Prestwick Library Screening Results, E. cloacae (increase in extracellular AK activity)
[9] = planktonic E. coli, cutoff for positive-scoring molecules 3-fold increase, read-out: AK-based Prestwick Library Screening Results, E. coli (increase in extracellular AK activity)
[10] = planktonic, […], read-out: AK-based Prestwick Library Screening Results, E. faecium (fold increase in extracellular AK activity)
[11] = planktonic, […], read-out: AK-based Prestwick Library Screening Results, S. aureus (fold increase in extracellular AK activity)
[12] = planktonic, […], read-out: AK-based Prestwick Library Screening Results, K. pneumoniae (fold increase in extracellular AK activity)
[13] = planktonic, […], read-out: AK-based Prestwick Library Screening Results, A. baumannii (fold increase in extracellular AK activity)
[14] = planktonic, […], read-out: AK-based Prestwick Library Screening Results, P. aeruginosa (fold increase in extracellular AK activity)
[15] = planktonic, […], read-out: AK-based Prestwick Library Screening Results, E. cloacae (fold increase in extracellular AK activity)
[16] = planktonic, […], read-out: AK-based Prestwick Library Screening Results, E. coli (fold increase in extracellular AK activity)
[17] = planktonic, cutoff for positive-scoring molecules 3-fold increase

Compound: Guanadrel sulfate
- AK-based Prestwick Library Screening Results, E. faecium (fold increase in extracellular AK activity) (E. faecium; planktonic, […]): 1.0
- AK-based Prestwick Library Screening Results, S. aureus (fold increase in extracellular AK activity) ([1]; planktonic, […]): 1.2
- AK-based Prestwick Library Screening Results, K. pneumoniae (fold increase in extracellular AK activity) (K. pneumoniae; planktonic, […]): 0.7
- AK-based Prestwick Library Screening Results, A. baumannii (fold increase in extracellular AK activity) ([2]; planktonic, […]): 1.0
- AK-based Prestwick Library Screening Results, P. aeruginosa (fold increase in extracellular AK activity) (P. aeruginosa; planktonic, […]): 1.1
- AK-based Prestwick Library Screening Results, E. cloacae (fold increase in extracellular AK activity) (E. cloacae; planktonic, […]): 1.4
- AK-based Prestwick Library Screening Results, E. coli (fold increase in extracellular AK activity) (E. coli; planktonic, […]): 1.3

Compound: c1cnc(N2CCN(Cc3ccc4c(c3)OCO4)CC2)nc1 [Piribedil hydrochloride]
- fold induction at 50 µM (E. faecium; planktonic E. faecium, positive cutoff 3-fold increase, read-out: AK-based Prestwick library screening result, E. faecium (fold increase in extracellular AK activity)): 0.9
- fold induction at 50 µM ([1]; planktonic S. aureus, positive cutoff 3-fold increase, read-out: AK-based Prestwick library screening result, S. aureus (fold increase in extracellular AK activity)): 0.6
- fold induction at 50 µM (K. pneumoniae; planktonic K. pneumoniae, positive cutoff 3-fold increase, read-out: AK-based Prestwick library screening result, K. pneumoniae (fold increase in extracellular AK activity)): 0.5
- fold induction at 50 µM ([2]; planktonic A. baumannii, positive cutoff 3-fold increase, read-out: AK-based Prestwick library screening result, A. baumannii (fold increase in extracellular AK activity)): 0.7
- fold induction at 50 µM (P. aeruginosa; planktonic P. aeruginosa, positive cutoff 3-fold increase, read-out: AK-based Prestwick library screening result, P. aeruginosa (fold increase in extracellular AK activity)): 0.6
- fold induction at 50 µM (E. cloacae; planktonic E. cloacae, positive cutoff 3-fold increase, read-out: AK-based Prestwick library screening result, E. cloacae (fold increase in extracellular AK activity)): 1
- fold induction at 50 µM (E. coli; planktonic E. coli, positive cutoff 3-fold increase, read-out: AK-based Prestwick library screening result, E. coli (fold increase in extracellular AK activity)): 0.6

Compound: CN1CCN(C(c2ccccc2)c2ccccc2)CC1 [Cyclizine hydrochloride]
- fold induction at 50 µM (E. faecium; [3]): 1
- fold induction at 50 µM [1, 4]: 0.9
- fold induction at 50 µM (K. pneumoniae; [5]): 0.8
- fold induction at 50 µM [2, 6]: 1
- fold induction at 50 µM (P. aeruginosa; [7]): 0.9
- fold induction at 50 µM (E. cloacae; [8]): 0.9
- fold induction at 50 µM (E. coli; [9]): 0.9

Compound: CCC1(CC)C(=O)C=CNC1=O [Pyrithyldione]
- fold induction at 50 µM (E. faecium; [10]): 0.8
- fold induction at 50 µM [1, 11]: 0.6
- fold induction at 50 µM (K. pneumoniae; [12]): 0.6
- fold induction at 50 µM [2, 13]: 0.5
- fold induction at 50 µM (P. aeruginosa; [14]): 0.6
- fold induction at 50 µM (E. cloacae; [15]): 0.7
- fold induction at 50 µM (E. coli; [16]): 0.7

Compound: NC(=O)N/N=C/c1ccc([N+](=O)[O-])o1 [Nitrofural]
- fold induction at 50 µM (E. faecium; [3]): 1
- fold induction at 50 µM [1, 4]: 0.5
- fold induction at 50 µM (K. pneumoniae; [5]): 0.2
- fold induction at 50 µM [2, 6]: 1
- fold induction at 50 µM (P. aeruginosa; [7]): 0.8
- fold induction at 50 µM (E. cloacae; [8]): 0.8
- fold induction at 50 µM (E. coli; [9]): 0.7

Compound: O=C1CN(/N=C/c2ccc(-c3ccc([N+](=O)[O-])cc3)o2)C(O)=N1 [Dantrolene sodium salt]
- fold induction at 50 µM (E. faecium; planktonic E. faecium, 384-well, cutoff for positive-scoring molecules 3-fold increase, read-out: AK-based Prestwick Library Screening Results: E. faecium (increase in extracellular AK activity)): 1
- fold induction at 50 µM ([1]; planktonic S. aureus, 384-well, cutoff for positive-scoring molecules 3-fold increase, read-out: AK-based Prestwick Library Screening Results: S. aureus (increase in extracellular AK activity)): 1.1
- fold induction at 50 µM (K. pneumoniae; planktonic K. pneumoniae, 384-well, cutoff for positive-scoring molecules 3-fold increase, read-out: AK-based Prestwick Library Screening Results: K. pneumoniae (increase in extracellular AK activity)): 0.9
- fold induction at 50 µM ([2]; planktonic A. baumannii, 384-well, cutoff for positive-scoring molecules 3-fold increase, read-out: AK-based Prestwick Library Screening Results: A. baumannii (increase in extracellular AK activity)): 1.1
- fold induction at 50 µM (P. aeruginosa; planktonic P. aeruginosa, 384-well, cutoff for positive-scoring molecules 3-fold increase, read-out: AK-based Prestwick Library Screening Results: P. aeruginosa (increase in extracellular AK activity)): 1.2
- fold induction at 50 µM (E. cloacae; planktonic E. cloacae, 384-well, cutoff for positive-scoring molecules 3-fold increase, read-out: AK-based Prestwick Library Screening Results: E. cloacae (increase in extracellular AK activity)): 1.5
- fold induction at 50 µM (E. coli; planktonic E. coli, 384-well, cutoff for positive-scoring molecules 3-fold increase, read-out: AK-based Prestwick Library Screening Results: E. coli (increase in extracellular AK activity)): 1

Compound: COC(=O)[C@H]1[C@H]2C[C@H]3c4[nH]c5ccccc5c4CCN3C[C@@H]2CC[C@@H]1O.Cl [Corynanthine hydrochloride]
- AK-based Prestwick Library Screening Results, E. faecium (increase in extracellular AK activity) (E. faecium; planktonic E. faecium, cutoff for positive-scoring molecules 3-fold increase): 1.0
- AK-based Prestwick Library Screening Results, S. aureus (increase in extracellular AK activity) ([1]; planktonic S. aureus, cutoff for positive-scoring molecules 3-fold increase): 0.7
- AK-based Prestwick Library Screening Results, K. pneumoniae (increase in extracellular AK activity) (K. pneumoniae; planktonic K. pneumoniae, cutoff for positive-scoring molecules 3-fold increase): 0.6
- AK-based Prestwick Library Screening Results, A. baumannii (increase in extracellular AK activity) ([2]; planktonic A. baumannii, cutoff for positive-scoring molecules 3-fold increase): 0.6
- AK-based Prestwick Library Screening Results, P. aeruginosa (increase in extracellular AK activity) (P. aeruginosa; planktonic P. aeruginosa, cutoff for positive-scoring molecules 3-fold increase): 0.7
- AK-based Prestwick Library Screening Results, E. cloacae (increase in extracellular AK activity) (E. cloacae; planktonic E. cloacae, cutoff for positive-scoring molecules 3-fold increase): 0.8
- AK-based Prestwick Library Screening Results, E. coli (increase in extracellular AK activity) (E. coli; planktonic E. coli, cutoff for positive-scoring molecules 3-fold increase): 0.7

Compound: CCN1C[C@]2(C)CC[C@H](OC)[C@@]34C1[C@]1(OCO[C@@]15C[C@H](OC)[C@H]1C[C@]3(O)[C@@H]5[C@H]1OC)[C@@H](OC(C)=O)[C@H]24 [Deltaline]
- fold induction at 50 µM (E. faecium; [10]): 0.9
- fold induction at 50 µM [1, 11]: 0.8
- fold induction at 50 µM (K. pneumoniae; [12]): 0.7
- fold induction at 50 µM [2, 13]: 0.8
- fold induction at 50 µM (P. aeruginosa; [14]): 0.8
- fold induction at 50 µM (E. cloacae; [15]): 1.1
- fold induction at 50 µM (E. coli; [16]): 0.9

Compound: Trimipramine maleate salt
- AK-based Prestwick Library Screening Results, E. faecium (fold increase in extracellular AK activity) (E. faecium; [17]): 0.9
- AK-based Prestwick Library Screening Results, S. aureus (fold increase in extracellular AK activity) [1, 17]: 0.5
- AK-based Prestwick Library Screening Results, K. pneumoniae (fold increase in extracellular AK activity) (K. pneumoniae; [17]): 0.6
- AK-based Prestwick Library Screening Results, A. baumannii (fold increase in extracellular AK activity) [2, 17]: 0.6
- AK-based Prestwick Library Screening Results, P. aeruginosa (fold increase in extracellular AK activity) (P. aeruginosa; [17]): 0.6
- AK-based Prestwick Library Screening Results, E. cloacae (fold increase in extracellular AK activity) (E. cloacae; [17]): 0.6
- AK-based Prestwick Library Screening Results, E. coli (fold increase in extracellular AK activity) (E. coli; [17]): 0.6

Compound: S=C(NC1CCCCC1)N1CCC(c2cnc[nH]2)CC1 [Thioperamide maleate]
- fold induction at 50 µM (E. faecium; cutoff for positive-scoring molecules 3-fold increase, read-out: AK-based Prestwick Library Screening Results, E. faecium (fold increase in extracellular AK activity)): 1
- fold induction at 50 µM ([1]; cutoff for positive-scoring molecules 3-fold increase, read-out: AK-based Prestwick Library Screening Results, S. aureus (fold increase in extracellular AK activity)): 1.1
- fold induction at 50 µM (K. pneumoniae; cutoff for positive-scoring molecules 3-fold increase, read-out: AK-based Prestwick Library Screening Results, K. pneumoniae (fold increase in extracellular AK activity)): 1
- fold induction at 50 µM ([2]; cutoff for positive-scoring molecules 3-fold increase, read-out: AK-based Prestwick Library Screening Results, A. baumannii (fold increase in extracellular AK activity)): 1
- fold induction at 50 µM (P. aeruginosa; cutoff for positive-scoring molecules 3-fold increase, read-out: AK-based Prestwick Library Screening Results, P. aeruginosa (fold increase in extracellular AK activity)): 1.3
- fold induction at 50 µM (E. cloacae; cutoff for positive-scoring molecules 3-fold increase, read-out: AK-based Prestwick Library Screening Results, E. cloacae (fold increase in extracellular AK activity)): 1.6
- fold induction at 50 µM (E. coli; […], read-out: AK-based Prestwick Library Screening Results, E. coli (fold increase in extracellular AK activity)): 1.2

Reference: patent publication US10004701B2, “Methods and compositions for treating infection” (UNIVERSITY OF ROCHESTER, priority 2012, dated 2018)
